In patent publication US11434242B2, “Dopamine-b-hydroxylase inhibitors” (BIAL-PORTELA & Cª, S.A., priority 2017, dated 2022):

Target: T1, Dopamine beta hydroxylase (Homo sapiens, UniProt P09172)
T1 construct: 125 μl of plasma; tissue Instituto Português do Sangue Transplantação; host or cells: human plasma from healthy donors
T1 sequence (P09172 40-617 limits assumed): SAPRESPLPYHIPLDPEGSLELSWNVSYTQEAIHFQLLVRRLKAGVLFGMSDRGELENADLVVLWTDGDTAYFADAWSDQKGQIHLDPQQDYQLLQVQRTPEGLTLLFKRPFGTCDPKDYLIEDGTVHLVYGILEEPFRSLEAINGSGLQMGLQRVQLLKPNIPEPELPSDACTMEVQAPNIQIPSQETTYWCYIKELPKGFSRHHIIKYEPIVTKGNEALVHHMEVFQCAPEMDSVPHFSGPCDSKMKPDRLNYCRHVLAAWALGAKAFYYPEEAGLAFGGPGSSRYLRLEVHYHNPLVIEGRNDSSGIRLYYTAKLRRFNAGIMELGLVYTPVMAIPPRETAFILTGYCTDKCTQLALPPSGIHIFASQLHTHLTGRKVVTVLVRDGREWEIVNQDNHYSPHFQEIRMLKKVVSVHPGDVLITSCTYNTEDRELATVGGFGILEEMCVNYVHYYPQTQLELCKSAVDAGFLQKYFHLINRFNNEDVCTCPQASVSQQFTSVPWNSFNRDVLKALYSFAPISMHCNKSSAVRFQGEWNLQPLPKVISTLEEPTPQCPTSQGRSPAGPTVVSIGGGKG
Assay: Dopamine beta hydroxylase activity in human plasma
Format: biochemical
Details: for Plasma (0.01 μM), activity in % of control: inhibitor 0.01 μM; for Plasma (0.1 μM), activity in % of control: inhibitor 0.1 μM; for Plasma (1 μM), activity in % of control: inhibitor 1 μM
Outline: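 Healthy-donor human plasma pre-incubated 10 min at 37° C with compound at final 10, 100 or 1000 nM in pH 5.0 acetate buffer with ascorbate, fumarate, pargyline, N-ethylmaleimide, catalase and copper sulfate. Tyramine substrate then added for 45 min; octopamine formed was isolated by SCX cartridge, periodate-converted and read at 330 nm; activity given as % control.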

SMILES | Plasma (0.01 μM), activity in % of control | Plasma (0.1 μM), activity in % of control | Plasma (1 μM), activity in % of control
O=C(Cc1[nH]c(=S)n2c1C[C@H](c1c(F)c(F)cc(F)c1F)C2)NC1CCS(=O)(=O)CC1 [Example 129, (R)—N-(1,1-dioxidotetrahydro-2H-thiopyran-4-yl)-2-(6-(2,3,5,6-tetrafluorophenyl)-3-thioxo-2,5,6,7-tetrahydro-3H-pyrrolo[1,2-c]imidazol-1-yl)acetamide] | 50.1 % of control | 10.3 % of control | –
O=C(Cc1[nH]c(=S)n2c1C[C@H](c1c(F)ccc(Br)c1F)C2)NC1CCS(=O)(=O)CC1 [Example 130, (R)-2-(6-(3-bromo-2,6-difluorophenyl)-3-thioxo-2,5,6,7-tetrahydro-3H-pyrrolo[1,2-c]imidazol-1-yl)-N-(1,1-dioxidotetrahydro-2H-thiopyran-4-yl)acetamide] | 55.7 % of control | 8.4 % of control | –
CC(C)NC(=O)Cc1[nH]c(=S)n2c1C[C@H](c1c(F)ccc(Br)c1F)C2 [Example 133, (R)-2-(6-(3-bromo-2,6-difluorophenyl)-3-thioxo-2,5,6,7-tetrahydro-3H-pyrrolo[1,2-c]imidazol-1-yl)-N-isopropylacetamide] | 95.9 % of control | 82.4 % of control | –
CN(Cc1cccnc1)C(=O)Cc1[nH]c(=S)n2c1C[C@@H](c1c(F)ccc(Cl)c1F)C2 [Example 134, (S)-2-(6-(3-chloro-2,6-difluorophenyl)-3-thioxo-2,5,6,7-tetrahydro-3H-pyrrolo[1,2-c]imidazol-1-yl)-N-methyl-N-(pyridin-3-ylmethyl)acetamide] | 24.9 % of control | 3.2 % of control | –
CS(=O)(=O)C1CCN(C(=O)Cc2[nH]c(=S)n3c2C[C@H](c2c(F)ccc(Br)c2F)C3)C1 (stereo partly drawn) [Example 135, 2-((R)-6-(3-bromo-2,6-difluorophenyl)-3-thioxo-2,5,6,7-tetrahydro-3H-pyrrolo[1,2-c]imidazol-1-yl)-1-(3-(methylsulfonyl)pyrrolidin-1-yl)ethan-1-one] | 88.3 % of control | 58.1 % of control | –
O=C(Cc1[nH]c(=S)n2c1C[C@@H](c1c(F)ccc(Br)c1F)C2)N1CCS(=O)(=O)CC1 [Example 136, (S)-2-(6-(3-bromo-2,6-difluorophenyl)-3-thioxo-2,5,6,7-tetrahydro-3H-pyrrolo[1,2-c]imidazol-1-yl)-1-(1,1-dioxidothiomorpholino)ethan-1-one] | 44.3 % of control | 6.8 % of control | –
O=C(Cc1[nH]c(=S)n2c1C[C@@H](c1c(F)ccc(Br)c1F)C2)N1CCSCC1 [Example 137, (S)-2-(6-(3-bromo-2,6-difluorophenyl)-3-thioxo-2,5,6,7-tetrahydro-3H-pyrrolo[1,2-c]imidazol-1-yl)-1-thiomorpholinoethan-1-one] | 72.9 % of control | 21.5 % of control | –
O=C(Cc1[nH]c(=S)n2c1C[C@@H](c1c(F)ccc(Br)c1F)C2)N1CCC2(CCOC2)C1 (stereo partly drawn) [Example 138, 2-((S)-6-(3-bromo-2,6-difluorophenyl)-3-thioxo-2,5,6,7-tetrahydro-3H-pyrrolo[1,2-c]imidazol-1-yl)-1-(2-oxa-7-azaspiro[4.4]nonan-7-yl)ethan-1-one] | 46.6 % of control | 5.0 % of control | –
O=C(Cc1[nH]c(=S)n2c1C[C@H](c1c(F)ccc(Br)c1F)C2)NCc1ccccn1 [Example 139, (R)-2-(6-(3-bromo-2,6-difluorophenyl)-3-thioxo-2,5,6,7-tetrahydro-3H-pyrrolo[1,2-c]imidazol-1-yl)-N-(pyridin-2-ylmethyl)acetamide] | 77.8 % of control | 20.8 % of control | –
O=C(Cc1[nH]c(=S)n2c1[C@@H]1C[C@]1(c1c(F)ccc(Cl)c1F)C2)NCCn1cccn1 [Example 142, N-(2-(1H-pyrazol-1-yl)ethyl)-2-((5aS,6aR)-5a-(3-chloro-2,6-difluorophenyl)-3-thioxo-2,3,5,5a,6,6a-hexahydrocyclopropa[3,4]pyrrolo[1,2-c]imidazol-1-yl)acetamide] | 60.0 % of control | 16.2 % of control | –
O=C(Cc1[nH]c(=S)n2c1[C@@H]1C[C@]1(c1cc(Br)ccc1F)C2)NCC1CC1 [Example 143, 2-((5aS,6aR)-5a-(5-bromo-2-fluorophenyl)-3-thioxo-2,3,5,5a,6,6a-hexahydrocyclopropa[3,4]pyrrolo[1,2-c]imidazol-1-yl)-N-(cyclopropylmethyl)acetamide] | – | 20.1 % of control | 0.2 % of control
N#CCNC(=O)Cc1[nH]c(=S)n2c1[C@@H]1C[C@]1(c1cc(Br)ccc1F)C2 [Example 144, 2-((5aS,6aR)-5a-(5-bromo-2-fluorophenyl)-3-thioxo-2,3,5,5a,6,6a-hexahydrocyclopropa[3,4]pyrrolo[1,2-c]imidazol-1-yl)-N-(cyanomethyl)acetamide] | – | 14.7 % of control | 0.1 % of control
O=C(Cc1[nH]c(=S)n2c1[C@@H]1C[C@]1(c1cc(Br)ccc1F)C2)NCCc1ccccn1 [Example 145, 2-((5aS,6aR)-5a-(5-bromo-2-fluorophenyl)-3-thioxo-2,3,5,5a,6,6a-hexahydrocyclopropa[3,4]pyrrolo[1,2-c]imidazol-1-yl)-N-(2-(pyridin-2-yl)ethyl)acetamide] | – | 18.2 % of control | 2.0 % of control
CN(C)CCCNC(=O)Cc1[nH]c(=S)n2c1[C@@H]1C[C@]1(c1cc(Br)ccc1F)C2.Cl [Example 146, 2-((5aS,6aR)-5a-(5-bromo-2-fluorophenyl)-3-thioxo-2,3,5,5a,6,6a-hexahydrocyclopropa[3,4]pyrrolo[1,2-c]imidazol-1-yl)-N-(3-(dimethylamino)propyl)acetamide hydrochloride] | – | 13.8 % of control | 0.9 % of control

The remaining lines, values ahead:

Plasma (0.01 μM), activity in % of control | Plasma (0.1 μM), activity in % of control | Plasma (1 μM), activity in % of control | SMILES
100.2 % of control | 40.2 % of control | – | CS(=O)(=O)C1CCN(C(=O)Cc2[nH]c(=S)n3c2C[C@H](c2c(F)ccc(Br)c2F)C3)CC1 [Example 126, (R)-2-(6-(3-bromo-2,6-difluorophenyl)-3-thioxo-2,5,6,7-tetrahydro-3H-pyrrolo[1,2-c]imidazol-1-yl)-1-(4-(methylsulfonyl)piperidin-1-yl)ethan-1-one]
81.3 % of control | 83.8 % of control | – | C[C@@H](NC(=O)Cc1[nH]c(=S)n2c1C[C@H](c1c(F)ccc(Br)c1F)C2)C1CCCCC1 [Example 127, 2-((R)-6-(3-bromo-2,6-difluorophenyl)-3-thioxo-2,5,6,7-tetrahydro-3H-pyrrolo[1,2-c]imidazol-1-yl)-N—((R)-1-cyclohexylethyl)acetamide]
98.1 % of control | 29.7 % of control | – | CN(C(=O)Cc1[nH]c(=S)n2c1C[C@H](c1c(F)ccc(Br)c1F)C2)C1CCOCC1 [Example 128, (R)-2-(6-(3-bromo-2,6-difluorophenyl)-3-thioxo-2,5,6,7-tetrahydro-3H-pyrrolo[1,2-c]imidazol-1-yl)-N-methyl-N-(tetrahydro-2H-pyran-4-yl)acetamide]
89.8 % of control | 50.5 % of control | – | CN(CCO)C(=O)Cc1[nH]c(=S)n2c1C[C@H](c1c(F)ccc(Br)c1F)C2 [Example 131, (R)-2-(6-(3-bromo-2,6-difluorophenyl)-3-thioxo-2,5,6,7-tetrahydro-3H-pyrrolo[1,2-c]imidazol-1-yl)-N-(2-hydroxyethyl)-N-methylacetamide]
91.9 % of control | 62.3 % of control | – | CN(C(=O)Cc1[nH]c(=S)n2c1C[C@H](c1c(F)ccc(Br)c1F)C2)C1CCCCC1 [Example 132, (R)-2-(6-(3-bromo-2,6-difluorophenyl)-3-thioxo-2,5,6,7-tetrahydro-3H-pyrrolo[1,2-c]imidazol-1-yl)-N-cyclohexyl-N-methylacetamide]
73.1 % of control | 26.8 % of control | – | O=C(Cc1[nH]c(=S)n2c1C[C@@H](c1c(F)ccc(Br)c1F)C2)N1CCOCC1 [Example 140, (S)-2-(6-(3-bromo-2,6-difluorophenyl)-3-thioxo-2,5,6,7-tetrahydro-3H-pyrrolo[1,2-c]imidazol-1-yl)-1-morpholinoethan-1-one]
93.2 % of control | 76.1 % of control | – | O=C(Cc1[nH]c(=S)n2c1C[C@H](c1c(F)ccc(Br)c1F)C2)N1CCOCC1 [Example 141, (R)-2-(6-(3-bromo-2,6-difluorophenyl)-3-thioxo-2,5,6,7-tetrahydro-3H-pyrrolo[1,2-c]imidazol-1-yl)-1-morpholinoethan-1-one]
